EP1754489A1, “A method of treating vitiligo using synergistic formation” (Ramaiah, Abburi, Prof., priority 2005, dated 2007)

Legend:
[1] = test system: fast spreading vitiligo; assay: Clinical trial: arrest of disease activity with oral minipulse (OMP) of beta methasone with or without local active peptide; format: in vivo, human volunteers
Text: (§1) That this happens was shown in a clinical trial on human volunteers. The above twin objectives were accomplished. Fig.2a describes two vitiligo patches at the start of treatment of oral steroids, while 2b describes the same patches at the end of 3 months of treatment with oral steroids while at the same time bFGF peptide(s) lotion was applied locally once a day on the lower vitiligo patch for the duration of intake of oral steroids. […] The arrest of the fast spread of the disease was accomplished to the same extent of 84% at the end of 6 months of treatment with oral steroids and the result was not altered by the local application of bFGF peptide(s) lotion (See table 3 for more details).

[2] = test system: vitiligo patches of volunteers; assay: Clinical trial: repigmentation with oral minipulse of beta methasone with or without local active peptide; format: in vivo, human volunteers
Text: as §1
At the end of 3 months of combinatorial treatment with steroids and local application of bFGF lotion more than 3 fold more patients got pigmented to a marked extent than with steroid alone (See Table 4 for more details). The percentage of volunteers who had moderate and marked rate of repigmentation with combinatorial therapy at the end of three months of treatment is twice than the steroid therapy alone.

Structure (SMILES): C[C@H]1C[C@H]2[C@@H]3CCC4=CC(=O)C=C[C@]4(C)[C@@]3(F)[C@@H](O)C[C@]2(C)[C@@]1(O)C(=O)CO [OMP Alone, beta methasone]
- No. of patients where the disease was arrested with time ([1]; At 3 months): 12
- Patients where the disease was arrested, percent ([1]; At 3 months): 75%
- No. of patients where the disease was arrested with time ([1]; At 6 months): 14
- Patients where the disease was arrested, percent ([1]; At 6 months): 87.5%
- Patients where the disease was arrested, percent ([1]; At 6 months, listed as oral steroids): 84%
- Repigmentation Marked, number of volunteers ([2]; At 3 months): 2
- Repigmentation Minimal, number of volunteers ([2]; At 3 months): 11
- Repigmentation Moderate, number of volunteers ([2]; At 3 months): 3
- Repigmentation Marked, number of volunteers ([2]; At 6 months): 4
- Repigmentation Minimal, number of volunteers ([2]; At 6 months): 8
- Repigmentation Moderate, number of volunteers ([2]; At 6 months): 4
